The text below walks through data of patent US20240368150A1 (Hoffmann-La Roche Inc., priority 2021, published 2024).

Assay [1] concerns primary human T-cells. Put plainly: Proliferation assay after 5 days (CellTiter-Glo, CD3 stimulation; PBS counter screen). The settings on record: CD3 stimulation; for Emax: read-out: Emax proliferation (% activation); for EC50: primary human T-cells, CellTiter-Glo after 5 days, EC50 of fitted sigmoidal curve, read-out: Tcell Proliferation CD3 EC50. The class given is cell-based. The method, boiled down:
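ATP-based luminescence (CellTiter-Glo 2.0, room temperature) measured proliferation 5 days after compound addition to CD3-stimulated or unstimulated primary human T-cells. Flags marked compounds that lowered viability or activated unstimulated cells.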
Background: In ATP-based viability assays light output follows the ATP content of the culture.

The test system of another assay is MV-3 cells. As to the kind of experiment: T-cell - TCB - MV3 killing assay (MCSP-TCB, RFP object count by Incucyte). The class given is cell-based, human. Conditions: 5 d; for Emax: normalized: MCSP-TCB only = neutral control, 20 μM reference compound A1 = 100%, read-out: MSCP TCB killing MV-3 cells 5 d Emax; for EC50: primary human T-cells + MCSP-TCB, MV-3 RFP cells, read-out: MSCP TCB killing MV-3 cells 5 d EC50.

Assay [2] deals with primary human T-cells.
Setting [3] is: Homo sapiens, T-cell, 120 h, 5 days, normalized to reference compound A1 as stimulator control = 100%, DMSO neutral control.

Where two headings read alike, the source gives them in different places.

Take `Cc1cc2c(cc1-c1nnc(C(C)(C)C)o1)N(Cc1ccc(Cl)cc1)C(=O)[C@@H](N)CS2(=O)=O` [Example 272, (3R)-3-amino-7-(5-tert-butyl-1,3,4-oxadiazol-2-yl)-5-[(4-chlorophenyl)methyl]-8-methyl-1,1-dioxo-2,3-dihydro-1λ^6,5-benzothiazepin-4-one]: the Emax with primary human T-cells [1] (setting [3]) is 102%; in the assay on MV-3 cells (Homo sapiens, MV-3, 120 h), 100%. The EC50 with primary human T-cells [1] (Homo sapiens, T-cell, 120 h) came out at 790 nM; with MV-3 cells, 1090 nM; in the assay with primary human T-cells [2], 1700 nM.

In the case of `CC(C)(C)n1cc(-c2cc3c(cc2F)S(=O)(=O)C[C@H](N)C(=O)N3Cc2ccc(Cl)cc2)cn1` [Example 278, (3R)-3-amino-7-(1-tert-butylpyrazol-4-yl)-5-[(4-chlorophenyl)methyl]-8-fluoro-1,1-dioxo-2,3-dihydro-1λ^6,5-benzothiazepin-4-one], the Emax in the assay with primary human T-cells [1] (setting [3]) was 102%; in the assay with MV-3 cells (Homo sapiens, MV-3, 120 h), 100%. Moreover, the EC50 in the assay with primary human T-cells [1] (Homo sapiens, T-cell, 120 h) came to 1080 nM; with MV-3 cells, 830 nM; with primary human T-cells [2] it was 177 nM.

In the case of `CC(C)(C)c1cnn(-c2cc3c(cc2F)S(=O)(=O)C[C@H](N)C(=O)N3Cc2ccc(Cl)cc2)c1` [Example 282, (3R)-3-amino-7-(4-tert-butylpyrazol-1-yl)-5-[(4-chlorophenyl)methyl]-8-fluoro-1,1-dioxo-2,3-dihydro-1λ^6,5-benzothiazepin-4-one], the Emax with primary human T-cells [1] (setting [3]) came to 96%; in the assay on MV-3 cells (Homo sapiens, MV-3, 120 h) it was 74%. Besides, the EC50 in the assay on primary human T-cells [1] (Homo sapiens, T-cell, 120 h) is 5490 nM; in the assay with MV-3 cells, 880 nM; in the assay on primary human T-cells [2], 3710 nM.

In the case of `CC(C)(C)n1cnc(-c2cc3c(cc2F)S(=O)(=O)C[C@H](N)C(=O)N3Cc2ccc(Cl)cc2)n1` [Example 286, (3R)-3-amino-7-(1-tert-butyl-1,2,4-triazol-3-yl)-5-[(4-chlorophenyl)methyl]-8-fluoro-1,1-dioxo-2,3-dihydro-1λ^6,5-benzothiazepin-4-one], the Emax in the assay with primary human T-cells [1] (setting [3]) came to 93%; in the assay on MV-3 cells (Homo sapiens, MV-3, 120 h), 100%. Further, the EC50 in the assay with primary human T-cells [1] (Homo sapiens, T-cell, 120 h) is 338 nM; with MV-3 cells, 80 nM; in the assay with primary human T-cells [2], over 20000 nM.

For `CC(C)(C)c1nc(-c2cc3c(cc2F)S(=O)(=O)C[C@H](N)C(=O)N3Cc2ccc(Cl)cc2)no1` [Example 289, (3R)-3-amino-7-(5-tert-butyl-1,2,4-oxadiazol-3-yl)-5-[(4-chlorophenyl)methyl]-8-fluoro-1,1-dioxo-2,3-dihydro-1λ^6,5-benzothiazepin-4-one], the Emax turned out to be 124% in the assay with primary human T-cells [1] (setting [3]) and 97% in the assay with MV-3 cells (Homo sapiens, MV-3, 120 h). The EC50 is 187 nM with primary human T-cells [1] (Homo sapiens, T-cell, 120 h); 120 nM in the assay on MV-3 cells (Homo sapiens, MV-3, 120 h); 158 nM in the assay on primary human T-cells [2].

For the compound `CN1CC(c2nc(-c3cc4c(cc3F)S(=O)(=O)C[C@H](N)C(=O)N4Cc3ccc(Cl)cc3)no2)CC(F)(F)C1` (stereo partly drawn) [Example 323, (3R)-3-amino-5-[(4-chlorophenyl)methyl]-7-[5-(5,5-difluoro-1-methyl-3-piperidyl)-1,2,4-oxadiazol-3-yl]-8-fluoro-1,1-dioxo-2,3-dihydro-1λ^6,5-benzothiazepin-4-one], the Emax in the assay with primary human T-cells [1] (setting [3]) was 109%; in the assay on MV-3 cells (Homo sapiens, MV-3, 120 h), 100%. The EC50 with primary human T-cells [1] (Homo sapiens, T-cell, 120 h) is 229 nM; in the assay with MV-3 cells it was 90 nM; in the assay on primary human T-cells [2] it was 403 nM.

Regarding `N[C@H]1CS(=O)(=O)c2ccc(-c3nnc(N4CCOC(F)(F)C4)o3)cc2N(Cc2ccc(Cl)cc2)C1=O` [Example 391, (3R)-3-amino-5-[(4-chlorophenyl)methyl]-7-[5-(2,2-difluoromorpholin-4-yl)-1,3,4-oxadiazol-2-yl]-1,1-dioxo-2,3-dihydro-1λ^6,5-benzothiazepin-4-one], the Emax was 157% in the assay with primary human T-cells [1] (setting [3]) and 100% with MV-3 cells (Homo sapiens, MV-3, 120 h). Moreover, the EC50 in the assay on primary human T-cells [1] (Homo sapiens, T-cell, 120 h) is 207 nM; in the assay with MV-3 cells (Homo sapiens, MV-3, 120 h), 70 nM; with primary human T-cells [2] it was 284 nM.

For `CN(CC(F)(F)F)c1nnc(-c2ccc3c(c2)N(Cc2ccc(Cl)cc2)C(=O)[C@@H](N)CS3(=O)=O)o1` [Example 392, (3R)-3-amino-5-[(4-chlorophenyl)methyl]-7-[5-[methyl(2,2,2-trifluoroethyl)amino]-1,3,4-oxadiazol-2-yl]-1,1-dioxo-2,3-dihydro-1λ^6,5-benzothiazepin-4-one], the Emax in the assay on primary human T-cells [1] (setting [3]) was found to be 96%; in the assay on MV-3 cells (Homo sapiens, MV-3, 120 h), 92%. In addition, the EC50 in the assay on primary human T-cells [1] (Homo sapiens, T-cell, 120 h) worked out at 948 nM; with MV-3 cells, 210 nM; with primary human T-cells [2], 568 nM.

For `N[C@H]1CS(=O)(=O)c2ccc(-c3nnc(NC4CC(F)(F)C4)o3)cc2N(Cc2ccc(Cl)cc2)C1=O` [Example 397, (3R)-3-amino-5-[(4-chlorophenyl)methyl]-7-[5-[(3,3-difluorocyclobutyl)amino]-1,3,4-oxadiazol-2-yl]-1,1-dioxo-2,3-dihydro-1λ^6,5-benzothiazepin-4-one], the Emax in the assay on primary human T-cells [1] (setting [3]) was 82%; in the assay with MV-3 cells (Homo sapiens, MV-3, 120 h), 92%. The EC50 was 2190 nM in the assay with primary human T-cells [1] (Homo sapiens, T-cell, 120 h); 1850 nM with MV-3 cells; 649 nM in the assay with primary human T-cells [2].

For the compound `N[C@H]1CS(=O)(=O)c2ccc(-c3nnc(NC4CCCC(F)(F)C4)o3)cc2N(Cc2ccc(Cl)cc2)C1=O` (stereo partly drawn) [Example 401, (3R)-3-amino-5-[(4-chlorophenyl)methyl]-7-[5-[(3,3-difluorocyclohexyl)amino]-1,3,4-oxadiazol-2-yl]-1,1-dioxo-2,3-dihydro-1λ^6,5-benzothiazepin-4-one], the Emax amounted to 69% with primary human T-cells [1] (setting [3]) and 92% in the assay on MV-3 cells (Homo sapiens, MV-3, 120 h). For the same compound, the EC50 came out at 1130 nM in the assay with primary human T-cells [1] (Homo sapiens, T-cell, 120 h); 1540 nM in the assay on MV-3 cells; 446 nM in the assay with primary human T-cells [2].

Consider `CC(C)(C)c1nnc(-c2ccc3c(c2)N(Cc2ccc(C(C)(C)C#N)cc2)C(=O)[C@@H](N)CS3(=O)=O)o1` [Example 437, 2-[4-[[(3R)-3-amino-7-(5-tert-butyl-1,3,4-oxadiazol-2-yl)-1,1,4-trioxo-2,3-dihydro-1λ^6,5-benzothiazepin-5-yl]methyl]phenyl]-2-methyl-propanenitrile], for which the Emax in the assay with primary human T-cells [1] (setting [3]) was found to be 112%; with MV-3 cells (Homo sapiens, MV-3, 120 h), 88%. Moreover, the EC50 with primary human T-cells [1] (Homo sapiens, T-cell, 120 h) is 698 nM; in the assay on MV-3 cells (Homo sapiens, MV-3, 120 h) it was 340 nM; with primary human T-cells [2], 1400 nM.

`CN1CC(c2nnc(-c3cc4c(cc3F)S(=O)(=O)C[C@H](N)C(=O)N4Cc3ccc(Cl)cc3)o2)CC(F)(F)C1` (stereo partly drawn) [Example 451, (3R)-3-amino-5-[(4-chlorophenyl)methyl]-7-[5-(5,5-difluoro-1-methyl-3-piperidyl)-1,3,4-oxadiazol-2-yl]-8-fluoro-1,1-dioxo-2,3-dihydro-1λ^6,5-benzothiazepin-4-one]: the “Emax proliferation (% activation)” value with primary human T-cells [1] (5 days, normalized to reference compound A1 as stimulator control = 100%, DMSO neutral control) is 200 % activation. Further, the EC50 in the assay on primary human T-cells [1] amounted to 82.1 nM; with MV-3 cells, 160 nM; in the assay on primary human T-cells [2], 153 nM. The Emax with MV-3 cells (Homo sapiens, MV-3, 120 h) was determined as 88%.

As to `N[C@H]1CS(=O)(=O)c2cc(F)c(-c3nnc(N4CCOCC4)o3)cc2N(Cc2ccc(Cl)cc2)C1=O` [Example 454, (3R)-3-amino-5-[(4-chlorophenyl)methyl]-8-fluoro-7-(5-morpholino-1,3,4-oxadiazol-2-yl)-1,1-dioxo-2,3-dihydro-1λ^6,5-benzothiazepin-4-one], the Emax in the assay on primary human T-cells [1] (setting [3]) was determined as 129%; in the assay on MV-3 cells (Homo sapiens, MV-3, 120 h) it was 100%. The EC50 in the assay with primary human T-cells [1] (Homo sapiens, T-cell, 120 h) is 309 nM; in the assay with MV-3 cells, 70 nM; in the assay with primary human T-cells [2], 97.7 nM.

On to `N[C@H]1CS(=O)(=O)c2cc(F)c(-c3nnc(NC4CCCC4)o3)cc2N(Cc2ccc(Cl)cc2)C1=O` [Example 455, (3R)-3-amino-5-[(4-chlorophenyl)methyl]-7-[5-(cyclopentylamino)-1,3,4-oxadiazol-2-yl]-8-fluoro-1,1-dioxo-2,3-dihydro-1λ^6,5-benzothiazepin-4-one], for which the Emax with primary human T-cells [1] (setting [3]) amounted to 115%; with MV-3 cells (Homo sapiens, MV-3, 120 h) it was 91%. In addition, the EC50 in the assay on primary human T-cells [1] (Homo sapiens, T-cell, 120 h) turned out to be 339 nM; in the assay with MV-3 cells, 370 nM; with primary human T-cells [2] it was 225 nM.

Regarding `N[C@H]1CS(=O)(=O)c2cc(F)c(-c3nnc(NC4CCC(F)(F)C4)o3)cc2N(Cc2ccc(Cl)cc2)C1=O` (stereo partly drawn) [Example 456, (3R)-3-amino-5-[(4-chlorophenyl)methyl]-7-[5-[(3,3-difluorocyclopentyl)amino]-1,3,4-oxadiazol-2-yl]-8-fluoro-1,1-dioxo-2,3-dihydro-1λ^6,5-benzothiazepin-4-one], the Emax with primary human T-cells [1] (setting [3]) amounted to 99%; with MV-3 cells (Homo sapiens, MV-3, 120 h) it was 94%. Further, the EC50 in the assay on primary human T-cells [1] (Homo sapiens, T-cell, 120 h) was 1260 nM; in the assay with MV-3 cells, 770 nM; in the assay with primary human T-cells [2], 607 nM.

Turning to `N[C@H]1CS(=O)(=O)c2cc(F)c(-c3nnc(NC4CCC(F)(F)CC4)o3)cc2N(Cc2ccc(Cl)cc2)C1=O` [Example 458, (3R)-3-amino-5-[(4-chlorophenyl)methyl]-7-[5-[(4,4-difluorocyclohexyl)amino]-1,3,4-oxadiazol-2-yl]-8-fluoro-1,1-dioxo-2,3-dihydro-1λ^6,5-benzothiazepin-4-one], the Emax with primary human T-cells [1] (setting [3]) is 116%; in the assay on MV-3 cells (Homo sapiens, MV-3, 120 h), 95%. The EC50 in the assay with primary human T-cells [1] (Homo sapiens, T-cell, 120 h) is 491 nM; in the assay with MV-3 cells, 590 nM; in the assay on primary human T-cells [2], 543 nM.

For the compound `CC1(Nc2nnc(-c3cc4c(cc3F)S(=O)(=O)C[C@H](N)C(=O)N4Cc3ccc(Cl)cc3)o2)CC(F)(F)C1` [Example 461, (3R)-3-amino-5-[(4-chlorophenyl)methyl]-7-[5-[(3,3-difluoro-1-methyl-cyclobutyl)amino]-1,3,4-oxadiazol-2-yl]-8-fluoro-1,1-dioxo-2,3-dihydro-1λ^6,5-benzothiazepin-4-one], the Emax with primary human T-cells [1] (setting [3]) was 106%; in the assay on MV-3 cells (Homo sapiens, MV-3, 120 h), 91%. Further, the EC50 in the assay with primary human T-cells [1] (Homo sapiens, T-cell, 120 h) came out at 395 nM; with MV-3 cells, 310 nM; with primary human T-cells [2], 455 nM.
